Measurements from patent US5958945A, “Naphthamide derivatives of 3-beta-amino azabicyclo octane or nonane as neuroleptic agents” (Pierre Fabre Medicament, priority 1995, dated 1999).
Counter-ions that a name gives are not always drawn.

Key:
[1] = molecular target: 5-HT2 receptor (Rattus norvegicus, UniProt P14842); assay: Binding: displacement of [^3 H] Ketanserine (5-HT2 site); details: compared with the reference substances
Text: (§1) This process for studying specific binding is described Naunyn-Schmiedeberg's Arch. Pharmacol. 329, 333-338, 1985 and Mol. Pharmacol. 21, 301-314, 1982.

[2] = molecular target: D2 receptor; assay: Binding: displacement of [^3 H] YM-09151-2 (D2 site); details: Ligand [^3 H] YM09151-2
Text: as §1

5-HT2 receptor, sequence (P14842 whole entry): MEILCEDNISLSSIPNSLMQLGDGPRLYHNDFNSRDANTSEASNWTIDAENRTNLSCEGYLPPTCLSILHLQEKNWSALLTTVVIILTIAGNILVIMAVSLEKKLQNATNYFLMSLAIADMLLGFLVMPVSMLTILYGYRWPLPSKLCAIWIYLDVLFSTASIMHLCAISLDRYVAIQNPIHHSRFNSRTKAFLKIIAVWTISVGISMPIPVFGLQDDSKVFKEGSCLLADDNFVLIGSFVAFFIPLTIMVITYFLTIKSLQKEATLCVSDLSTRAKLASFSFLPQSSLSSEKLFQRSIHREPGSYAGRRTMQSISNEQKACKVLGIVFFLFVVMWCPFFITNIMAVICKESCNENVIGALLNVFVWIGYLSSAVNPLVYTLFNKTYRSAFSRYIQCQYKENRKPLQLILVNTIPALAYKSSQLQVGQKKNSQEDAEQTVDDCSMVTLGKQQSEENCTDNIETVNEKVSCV

Structure (SMILES)	affinity for the 5-HT2 receptor (in words) [1]	Ki [2] [nM]
COc1c(C(=O)NC2CCN(Cc3ccccc3)CC2)ccc2ccccc12 [Patent EP 539,281 compound]	little or no 5-HT2 affinity	3.32
COc1c(C(=O)N[C@@H]2C[C@H]3CC[C@@H](C2)N3Cc2ccccc2)cc(Br)c2ccccc12 [Example 4, 4-Bromo-1-methoxy-N-[8-(phenylmethyl)-8-azabicyclo[3.2.1]oct-3-β-yl]-2-naphthalenecarboxamide oxalate]		0.776
COc1cccc(C(=O)N[C@@H]2C[C@H]3CC[C@@H](C2)N3Cc2ccccc2)c1OC [Tropapride]	little or no 5-HT2 affinity	0.106
CCN1CCCC1CNC(=O)c1cc(S(N)(=O)=O)ccc1OC (stereo not drawn) [Sulpiride]		4.63
CCOc1c(C(=O)N[C@@H]2C[C@H]3CC[C@@H](C2)N3Cc2ccccc2)cc(Br)c2ccccc12 [Example 13, 4-Bromo-1-ethoxy-N-[8-(phenylmethyl)-8-azabicyclo[3.2.1]oct-3-β-yl]-2-naphthalenecarboxamide hydrochloride]		0.944
COc1c(C(=O)N[C@@H]2C[C@H]3CC[C@@H](C2)N3Cc2ccccc2)cc(Cl)c2ccccc12 [Example 5, 4-Chloro-1-methoxy-N-[8-(phenylmethyl)-8-azabicyclo[3.2.1]oct-3-β-yl)-2-naphthalenecarboxamide hydrochloride]		0.408
COc1c(C(=O)N[C@@H]2C[C@H]3CC[C@@H](C2)N3Cc2ccccc2)ccc2ccccc12 [Example 3, 1-Methoxy-N-[8-(phenylmethyl)-8-azabicyclo[3.2.1]oct-3-β-yl]-2-naphthalenecarboxamide]		0.143
